Consider two substances from article PMC11267363, “Supramolecular Nanofibers Ameliorate Bleomycin‐Induced Pulmonary Fibrosis by Restoring Autophagy” (Advanced Science, 2024).

Test [1] concerns autophagic flux in activated MRC-5 cells. The test is described as follows: Autophagic flux (LC3-II:LC3-I, p62 western blot; mRFP-GFP-LC3 live-cell imaging). Format: cell-based, human. The settings on record: TGF-β1 10 ng/mL, peptide 50 µM, 24 h. As for the experimental part: According to the manufacturer's instructions, MRC-5 cells were infected with mRFP-GFP-LC3 adenoviral particles. After infection, the cells were cultured for another 24 h and seeded on a CLSM dish at a density of 5 × 10^4 cells. After adherence, the cells were treated with 0 or 10 ng mL^-1 TGF-β1 for 24 h. On the other hand, in order to detect whether peptide could regulate the autophagic flux, the stable infected MRC-5 cells were seeded on a CLSM dish at a density of 5 × 10^4 cells. After adherence, the cells were treated with saline, Ac-GFFY-A2 (50 μM) or A2 (50 μM) plus TGF-β1 (10 ng mL^-1) for 24 h. The cells solely treated by saline as control group. Discarding the medium and washing the cells with cold PBS buffer. The autophagic flux was detected by Live Cell Imaging Microscopy (Leica TCS SP5). page 18: […] -3' and [NT]. […] The autophagic flux was detected by Live Cell Imaging Microscopy (Leica TCS SP5). […] The protein concentration was measured using BCA Protein Assay Kit (Thermo Scientific). […] The protein transferred PVDF membranes were incubated with following primary antibodies at 4°C overnight: Then the membranes were incubated with horseradish peroxidase (HRP)-conjugated secondary antibodies at room temperature for 1 h, and protein signals were detected using an enhanced chemiluminescence kit (Pierce). […] The co -precipitates were resolved using SDS-PAGE and detected with immunoblotting. […]

Another test concerns MRC-5 cells. Briefly: Western blot of α-SMA, Col 1 and fibronectin in TGF-β1 treated MRC-5 cells. Format: cell-based, human. The settings on record: MRC-5 cells treated with TGF-β1, western blot, n = 3. The source says: The progression of pulmonary fibrosis is closely associated with impaired autophagic flux by promoting the differentiation of fibroblast into myofibroblast. Given that Ac‐GFFY‐A2 peptide nanofibers have ability to restore the impaired autophagy, we proceeded to investigate their potential anti‐fibrotic effect. Fibroblasts and myofibroblasts are activated after tissue injury and in IPF patients, leading to increased ECM production and enhanced fibroblast migratory capacity.
Western blot analysis and co-immunoprecipitation
Total proteins were exacted from cells or tissues with RIPA lysis buffer (Beyotime Biotecnology). The protein concentration was measured using BCA Protein Assay Kit (Thermo Scientific). Equal amounts of lysates were resolved by SDS–PAGE. The protein transferred PVDF membranes were incubated with following primary antibodies at 4°C overnight: Then the membranes were incubated with horseradish peroxidase (HRP)-conjugated secondary antibodies at room temperature for 1 h, and protein signals were detected using an enhanced chemiluminescence kit (Pierce). […] The co -precipitates were resolved using SDS–PAGE and detected with immunoblotting. […]
The mice were then intravenously injected with 200 μL of sulfo-Cy5 labeled peptide (0.3 mg per mouse). Fluorescence imaging was performed using a IVIS Lumina II imaging (PerkinElmer, USA) at different time point post injection. […]
(Immunoblotting shows a protein as a band on a membrane.)

Ends that are not written are not given here.

On to Ac-GFFYGGWLTRLLQTK-OH [Ac-GFFY-A2], for which the autophagic flux result in test [1] is given as “restoration of autophagic flux”. The “protein expression of α-SMA, col 1 and fibronectin” value in the test with MRC-5 cells was “remarkably reduced”.

Regarding GGWLTRLLQTK-OH [A2, reference compound], the autophagic flux result in test [1] is “barely increased”. Besides, in the test on MRC-5 cells, the “protein expression of α-SMA, col 1 and fibronectin” value is given as “hardly inhibited fibroblast to myofibroblast differentiation”.
